Laboratory results as given in publication PMC9927415, “Tyrosine Kinase Inhibitors Display Potent Activity against Cryptosporidium parvum” (Microbiology Spectrum, 2022).
Where two headings read alike, the source gives them in different places.

Legend:
Experiment in all cases: KINOMEscan competitive binding
[1] = biological target: T1, CSNK1G1 (Homo sapiens, UniProt Q9HCP0)
T1 construct: purchased DiscoverX (KINOMEscan)
Source text: (§1) The kinases were expressed as fusions to T7 bacteriophage. This is a sensitive, competitive binding assay where test compounds were used to displace immobilized ATP-site binding probe ligands from kinases of interest. The amount of kinase that remained bound to the immobilized probe ligands on the solid support was quantified. Percentage inhibition data were was plotted on kinome trees using the web-based tool KinMap (http://www.kinhub.org/kinmap) ([60]).

[2] = biological target: T2, TTK (Homo sapiens, UniProt P33981)
T2 construct: purchased DiscoverX (KINOMEscan)
T2 sequence (P33981 1-857): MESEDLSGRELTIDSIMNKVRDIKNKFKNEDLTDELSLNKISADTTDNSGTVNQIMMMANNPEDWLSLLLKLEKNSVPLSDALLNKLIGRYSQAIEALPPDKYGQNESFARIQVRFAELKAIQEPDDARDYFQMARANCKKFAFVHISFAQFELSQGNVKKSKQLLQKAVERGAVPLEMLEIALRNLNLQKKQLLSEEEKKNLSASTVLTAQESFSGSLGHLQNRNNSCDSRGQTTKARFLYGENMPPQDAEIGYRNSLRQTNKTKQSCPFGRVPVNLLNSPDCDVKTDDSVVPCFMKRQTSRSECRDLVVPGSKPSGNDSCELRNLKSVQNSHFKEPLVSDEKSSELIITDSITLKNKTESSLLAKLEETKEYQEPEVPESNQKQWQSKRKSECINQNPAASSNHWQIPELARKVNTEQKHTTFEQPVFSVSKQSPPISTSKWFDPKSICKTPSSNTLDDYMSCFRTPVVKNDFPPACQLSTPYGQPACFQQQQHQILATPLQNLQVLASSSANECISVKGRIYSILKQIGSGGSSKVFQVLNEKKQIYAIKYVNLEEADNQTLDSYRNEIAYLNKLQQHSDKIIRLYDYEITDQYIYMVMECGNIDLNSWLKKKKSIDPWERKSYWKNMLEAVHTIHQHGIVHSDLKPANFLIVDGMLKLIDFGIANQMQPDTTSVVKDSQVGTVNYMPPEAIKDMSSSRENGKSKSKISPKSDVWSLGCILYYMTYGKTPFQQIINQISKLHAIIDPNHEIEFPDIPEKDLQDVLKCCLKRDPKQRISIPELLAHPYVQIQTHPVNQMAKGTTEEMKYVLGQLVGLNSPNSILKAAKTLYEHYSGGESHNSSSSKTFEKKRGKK
Source text: as §1

[3] = biological target: T3, CLK1 (Homo sapiens, UniProt P49759)
T3 construct: purchased DiscoverX (KINOMEscan)
Source text: as §1

[4] = biological target: T4, AXL (Homo sapiens, UniProt P30530)
T4 construct: purchased DiscoverX (KINOMEscan)
T4 sequence (P30530 26-894): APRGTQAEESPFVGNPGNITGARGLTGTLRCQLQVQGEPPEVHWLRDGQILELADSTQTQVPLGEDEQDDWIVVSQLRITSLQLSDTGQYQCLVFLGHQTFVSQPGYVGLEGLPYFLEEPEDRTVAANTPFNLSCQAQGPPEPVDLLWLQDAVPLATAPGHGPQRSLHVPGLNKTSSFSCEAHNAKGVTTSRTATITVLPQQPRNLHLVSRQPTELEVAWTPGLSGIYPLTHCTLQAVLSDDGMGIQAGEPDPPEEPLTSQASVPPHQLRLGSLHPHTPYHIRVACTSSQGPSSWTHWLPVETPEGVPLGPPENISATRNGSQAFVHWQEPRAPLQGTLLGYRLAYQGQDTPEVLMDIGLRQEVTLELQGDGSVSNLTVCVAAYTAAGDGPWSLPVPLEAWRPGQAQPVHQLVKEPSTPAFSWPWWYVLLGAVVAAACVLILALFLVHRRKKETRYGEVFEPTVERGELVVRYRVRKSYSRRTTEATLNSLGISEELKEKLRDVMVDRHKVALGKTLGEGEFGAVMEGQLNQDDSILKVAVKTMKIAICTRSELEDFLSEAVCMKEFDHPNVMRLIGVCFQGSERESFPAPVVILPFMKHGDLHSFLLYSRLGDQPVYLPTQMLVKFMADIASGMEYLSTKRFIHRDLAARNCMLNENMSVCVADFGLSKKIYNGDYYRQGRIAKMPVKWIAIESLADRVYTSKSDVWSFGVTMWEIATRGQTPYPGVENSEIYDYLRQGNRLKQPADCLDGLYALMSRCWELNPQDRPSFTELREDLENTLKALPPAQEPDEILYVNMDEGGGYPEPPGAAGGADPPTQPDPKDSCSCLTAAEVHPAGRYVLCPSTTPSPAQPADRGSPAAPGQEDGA
Source text: as §1

[5] = biological target: T5, CSNK1D (Homo sapiens, UniProt P48730)
T5 construct: purchased DiscoverX (KINOMEscan)
Source text: as §1

[6] = biological target: T6, CSNK2A1 (Homo sapiens, UniProt P68400)
T6 construct: purchased DiscoverX (KINOMEscan)
Source text: as §1

[7] = biological target: T7, KIT (Homo sapiens, UniProt P10721)
T7 construct: purchased DiscoverX (KINOMEscan)
Source text: as §1

[8] = biological target: T8, CDK2 (Homo sapiens, UniProt P24941)
T8 construct: purchased DiscoverX (KINOMEscan)
Source text: as §1

[9] = biological target: T9, CDK5 (Homo sapiens, UniProt Q00535)
T9 construct: purchased DiscoverX (KINOMEscan)
Source text: as §1

[10] = biological target: T10, KDR (VEGFR2) (Homo sapiens, UniProt P35968); settings: for inhibition at 10 µM: KINOMEscan, n=1, read-out: Percent inhibition, VEGFR2
T10 construct: purchased DiscoverX (KINOMEscan)
Source text: as §1

[11] = biological target: T11, PLK1 (Homo sapiens, UniProt P53350); settings: n=1, read-out: Percent inhibition, PLK1
T11 construct: purchased DiscoverX (KINOMEscan)
Source text: as §1

[12] = biological target: T12, PKAC-beta (Homo sapiens, UniProt P22694); settings: n=1, read-out: Percent inhibition, PKAC-beta
T12 construct: purchased DiscoverX (KINOMEscan)

[13] = biological target: T13, TIE2 (Homo sapiens, UniProt Q02763); settings: n=1, read-out: Percent inhibition, TIE2
T13 construct: purchased DiscoverX (KINOMEscan)

[14] = 10 µM, n=1, kinase CSNK1G1, read-out: Percent inhibition CSNK1G1
[15] = KINOMEscan, 10 µM, n=1, read-out: Percent inhibition, TTK
[16] = 10 µM, n=1, kinase CLK1, read-out: Percent inhibition CLK1
[17] = 10 µM, n=1, kinase AXL, read-out: Percent inhibition AXL
[18] = 10 µM, n=1, kinase CSNK1D, read-out: Percent inhibition CSNK1D
[19] = 10 µM, n=1, kinase CSNK2A1, read-out: Percent inhibition CSNK2A1
[20] = 10 µM, n=1, kinase KIT, read-out: Percent inhibition KIT
[21] = 10 μM, n = 1, read-out: percent inhibition CDK2
[22] = 10 µM, n=1, kinase CDK2, read-out: Percent inhibition CDK2
[23] = 10 μM, n = 1, read-out: percent inhibition CDK5
[24] = 10 µM, n=1, kinase CDK5, read-out: Percent inhibition CDK5
[25] = 10 μM, n = 1, read-out: percent inhibition KIT

T6 sequence (P68400 whole entry): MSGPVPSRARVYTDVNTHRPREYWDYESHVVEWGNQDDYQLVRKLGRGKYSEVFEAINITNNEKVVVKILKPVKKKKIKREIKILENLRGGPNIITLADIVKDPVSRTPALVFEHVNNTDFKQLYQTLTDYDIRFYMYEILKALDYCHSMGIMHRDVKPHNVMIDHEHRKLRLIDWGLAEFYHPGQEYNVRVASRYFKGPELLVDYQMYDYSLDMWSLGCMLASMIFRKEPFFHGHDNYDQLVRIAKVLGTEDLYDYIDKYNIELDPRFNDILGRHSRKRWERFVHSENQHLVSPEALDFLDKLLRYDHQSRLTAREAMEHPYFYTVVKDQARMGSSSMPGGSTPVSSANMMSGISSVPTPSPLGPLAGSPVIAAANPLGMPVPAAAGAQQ
T1 sequence (Q9HCP0 whole entry): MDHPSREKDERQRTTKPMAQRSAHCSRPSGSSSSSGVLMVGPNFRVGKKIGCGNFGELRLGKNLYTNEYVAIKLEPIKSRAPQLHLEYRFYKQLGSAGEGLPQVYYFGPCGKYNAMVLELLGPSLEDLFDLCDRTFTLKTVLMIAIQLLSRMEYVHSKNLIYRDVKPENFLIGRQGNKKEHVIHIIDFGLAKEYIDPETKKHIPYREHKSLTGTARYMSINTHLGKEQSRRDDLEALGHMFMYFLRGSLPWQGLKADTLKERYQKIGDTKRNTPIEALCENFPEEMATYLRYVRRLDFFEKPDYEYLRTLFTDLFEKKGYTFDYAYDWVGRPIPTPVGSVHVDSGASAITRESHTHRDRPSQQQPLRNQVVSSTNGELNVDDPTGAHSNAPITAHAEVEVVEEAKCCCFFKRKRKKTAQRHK
T5 sequence (P48730 whole entry): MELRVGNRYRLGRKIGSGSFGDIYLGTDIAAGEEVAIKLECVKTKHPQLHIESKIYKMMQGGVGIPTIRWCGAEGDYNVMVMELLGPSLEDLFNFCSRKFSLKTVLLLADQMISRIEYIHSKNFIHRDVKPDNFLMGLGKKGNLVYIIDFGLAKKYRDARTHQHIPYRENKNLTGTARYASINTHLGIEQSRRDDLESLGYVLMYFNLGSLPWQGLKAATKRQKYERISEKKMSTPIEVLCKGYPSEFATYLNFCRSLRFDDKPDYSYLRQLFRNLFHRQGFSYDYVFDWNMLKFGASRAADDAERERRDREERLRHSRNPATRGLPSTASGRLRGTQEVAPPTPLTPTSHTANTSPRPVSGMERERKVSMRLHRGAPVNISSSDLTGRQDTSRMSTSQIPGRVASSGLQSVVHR
T13 sequence (Q02763 23-1124): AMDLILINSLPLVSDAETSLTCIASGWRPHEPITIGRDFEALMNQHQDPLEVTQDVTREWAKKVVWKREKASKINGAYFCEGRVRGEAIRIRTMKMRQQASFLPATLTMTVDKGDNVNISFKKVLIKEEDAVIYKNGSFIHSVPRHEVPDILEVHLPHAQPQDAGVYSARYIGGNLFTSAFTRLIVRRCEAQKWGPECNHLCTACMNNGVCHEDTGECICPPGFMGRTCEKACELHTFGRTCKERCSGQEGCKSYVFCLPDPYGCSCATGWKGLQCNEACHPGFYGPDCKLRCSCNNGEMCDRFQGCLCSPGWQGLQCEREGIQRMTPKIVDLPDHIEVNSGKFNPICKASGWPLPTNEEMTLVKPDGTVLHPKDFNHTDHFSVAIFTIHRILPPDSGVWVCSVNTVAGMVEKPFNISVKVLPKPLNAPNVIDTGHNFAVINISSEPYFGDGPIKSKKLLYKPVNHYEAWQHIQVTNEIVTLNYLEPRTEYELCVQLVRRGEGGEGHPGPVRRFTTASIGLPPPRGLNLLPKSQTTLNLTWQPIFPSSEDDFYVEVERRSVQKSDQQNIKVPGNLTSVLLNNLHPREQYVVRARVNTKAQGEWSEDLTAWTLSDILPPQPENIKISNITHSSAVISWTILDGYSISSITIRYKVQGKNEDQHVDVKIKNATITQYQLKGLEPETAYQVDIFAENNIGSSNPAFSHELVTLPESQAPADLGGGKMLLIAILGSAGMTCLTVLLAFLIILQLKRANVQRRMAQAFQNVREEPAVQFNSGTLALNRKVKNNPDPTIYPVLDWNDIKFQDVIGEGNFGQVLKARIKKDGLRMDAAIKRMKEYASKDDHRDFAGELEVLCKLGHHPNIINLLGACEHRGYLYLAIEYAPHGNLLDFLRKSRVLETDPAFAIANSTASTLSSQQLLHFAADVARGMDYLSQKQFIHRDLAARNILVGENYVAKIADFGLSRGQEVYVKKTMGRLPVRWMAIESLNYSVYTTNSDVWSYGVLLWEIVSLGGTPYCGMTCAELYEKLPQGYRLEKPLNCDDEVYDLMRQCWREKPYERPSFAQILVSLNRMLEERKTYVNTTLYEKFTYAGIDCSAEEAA
T10 sequence (P35968 20-1356): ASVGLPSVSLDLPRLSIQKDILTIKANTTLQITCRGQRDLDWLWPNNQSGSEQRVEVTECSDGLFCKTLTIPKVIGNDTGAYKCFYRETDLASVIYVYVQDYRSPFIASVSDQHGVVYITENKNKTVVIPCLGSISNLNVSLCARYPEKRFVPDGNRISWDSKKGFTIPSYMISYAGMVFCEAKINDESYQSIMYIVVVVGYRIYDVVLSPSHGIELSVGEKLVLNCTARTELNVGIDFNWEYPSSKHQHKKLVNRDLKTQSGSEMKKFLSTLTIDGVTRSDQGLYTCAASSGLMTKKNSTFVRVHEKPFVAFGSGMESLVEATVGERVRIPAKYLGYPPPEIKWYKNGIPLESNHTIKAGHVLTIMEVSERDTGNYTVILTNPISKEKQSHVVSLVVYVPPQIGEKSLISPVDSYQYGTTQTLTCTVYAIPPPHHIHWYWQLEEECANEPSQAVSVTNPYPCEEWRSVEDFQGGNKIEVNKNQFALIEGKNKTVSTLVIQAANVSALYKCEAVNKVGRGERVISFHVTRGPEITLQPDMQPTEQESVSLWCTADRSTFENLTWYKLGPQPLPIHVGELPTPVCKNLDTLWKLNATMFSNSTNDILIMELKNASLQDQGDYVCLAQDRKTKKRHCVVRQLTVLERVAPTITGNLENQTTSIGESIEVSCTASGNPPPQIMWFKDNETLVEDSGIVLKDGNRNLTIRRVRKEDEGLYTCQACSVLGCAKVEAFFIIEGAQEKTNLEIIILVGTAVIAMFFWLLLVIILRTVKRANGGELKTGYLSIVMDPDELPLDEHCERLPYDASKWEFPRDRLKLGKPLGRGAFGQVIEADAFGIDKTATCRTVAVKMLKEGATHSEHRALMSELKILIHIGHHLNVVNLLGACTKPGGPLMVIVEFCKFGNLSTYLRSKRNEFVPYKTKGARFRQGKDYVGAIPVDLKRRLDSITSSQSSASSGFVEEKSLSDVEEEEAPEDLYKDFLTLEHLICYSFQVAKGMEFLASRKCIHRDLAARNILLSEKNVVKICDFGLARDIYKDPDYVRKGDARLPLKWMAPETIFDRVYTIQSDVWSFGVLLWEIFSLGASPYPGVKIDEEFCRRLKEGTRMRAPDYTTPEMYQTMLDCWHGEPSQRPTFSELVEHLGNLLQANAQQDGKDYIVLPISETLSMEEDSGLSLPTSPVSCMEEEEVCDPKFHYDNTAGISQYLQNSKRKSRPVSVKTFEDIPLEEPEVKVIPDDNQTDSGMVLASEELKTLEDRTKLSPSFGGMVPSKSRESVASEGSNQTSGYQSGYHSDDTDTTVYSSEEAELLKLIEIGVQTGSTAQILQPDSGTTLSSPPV
T3 sequence (P49759 whole entry): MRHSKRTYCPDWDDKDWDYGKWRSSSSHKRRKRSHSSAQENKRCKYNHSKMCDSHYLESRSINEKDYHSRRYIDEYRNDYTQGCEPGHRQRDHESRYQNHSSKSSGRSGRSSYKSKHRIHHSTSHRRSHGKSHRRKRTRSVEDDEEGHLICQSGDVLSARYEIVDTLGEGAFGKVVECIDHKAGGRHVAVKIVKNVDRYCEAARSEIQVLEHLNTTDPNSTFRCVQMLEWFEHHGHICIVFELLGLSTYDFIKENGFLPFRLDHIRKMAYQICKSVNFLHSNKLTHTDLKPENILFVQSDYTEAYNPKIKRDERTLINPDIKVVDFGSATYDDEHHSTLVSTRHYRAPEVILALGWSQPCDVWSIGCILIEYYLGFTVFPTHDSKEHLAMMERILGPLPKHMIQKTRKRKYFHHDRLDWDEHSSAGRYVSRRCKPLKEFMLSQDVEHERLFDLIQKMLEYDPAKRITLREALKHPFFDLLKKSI
T11 sequence (P53350 whole entry): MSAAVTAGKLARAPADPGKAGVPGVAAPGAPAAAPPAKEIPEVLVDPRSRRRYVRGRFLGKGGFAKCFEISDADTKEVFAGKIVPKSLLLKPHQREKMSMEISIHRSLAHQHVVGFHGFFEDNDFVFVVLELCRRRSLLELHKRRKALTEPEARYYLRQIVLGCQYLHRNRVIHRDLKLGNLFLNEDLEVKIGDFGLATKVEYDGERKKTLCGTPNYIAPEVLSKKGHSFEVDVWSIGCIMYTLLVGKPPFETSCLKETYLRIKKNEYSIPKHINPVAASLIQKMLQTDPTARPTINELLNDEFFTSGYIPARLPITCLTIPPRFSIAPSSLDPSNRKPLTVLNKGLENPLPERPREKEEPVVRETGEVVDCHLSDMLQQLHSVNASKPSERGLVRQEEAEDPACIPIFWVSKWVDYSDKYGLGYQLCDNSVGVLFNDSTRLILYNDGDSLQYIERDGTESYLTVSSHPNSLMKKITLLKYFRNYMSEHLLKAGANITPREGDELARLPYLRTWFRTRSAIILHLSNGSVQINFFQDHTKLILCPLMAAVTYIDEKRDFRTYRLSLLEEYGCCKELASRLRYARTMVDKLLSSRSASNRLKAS
T9 sequence (Q00535 whole entry): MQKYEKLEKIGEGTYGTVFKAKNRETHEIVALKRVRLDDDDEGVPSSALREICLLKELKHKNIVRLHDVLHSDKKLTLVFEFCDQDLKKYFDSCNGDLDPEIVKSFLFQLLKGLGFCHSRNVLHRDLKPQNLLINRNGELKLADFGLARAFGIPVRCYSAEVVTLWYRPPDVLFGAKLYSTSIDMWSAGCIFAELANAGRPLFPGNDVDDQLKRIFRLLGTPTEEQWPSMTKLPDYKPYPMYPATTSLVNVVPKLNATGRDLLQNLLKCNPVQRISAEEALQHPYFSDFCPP

SMILES | inhibition at 10 µM [1, 14] | inhibition at 10 µM [2, 15] | inhibition at 10 µM [3, 16] | inhibition at 10 µM [4, 17] | inhibition at 10 µM [5, 18] | inhibition at 10 µM [6, 19] | inhibition at 10 µM [7, 20] | inhibition at 10 µM [8, 22] | inhibition at 10 µM [9, 24] | inhibition at 10 µM [10] | inhibition at 10 µM [11] | inhibition at 10 µM [12] | inhibition at 10 µM [13] | further results
CN1CCN(c2ccc(Nc3nccc(-c4cnn5ncccc45)n3)cc2C#N)CC1 [Compound 1] | 100% | 99.9% | 99.9% | 100% | 100% | 100% | 100% | 99.5% | 99.5% | 100% | 0% | 0% | 0% | inhibition at 10 µM [8, 21]: > 99%; inhibition at 10 µM [9, 23]: > 99%
COc1ccc(Nc2nccc(-c3cnn4ncccc34)n2)cc1 [Compound 2] | 75.9% | 100% | 99.8% | 77.8% | 100% | 82% | 100% | 99.9% | 99.8% | 92.9% | 97.2% | 0% | 0% | inhibition at 10 µM [8, 21]: > 99%; inhibition at 10 µM [9, 23]: > 99%
Cc1ccc(O)cc1Nc1ccnc(Nc2cccc(C(N)=O)c2)n1 [Compound 3] | 82.5% | 98.7% | 0% | 0% | 100% | 0% | 100% | 0% | 0% | 81.5% | 0% | 0% | 97.5% | 
Cc1ccc(O)cc1N(C)c1ccnc(Nc2cccc(S(N)(=O)=O)c2)n1 [Compound 4] | 0% | 91.8% | 0% | 0% | 100% | 0% | 100% | 0% | 0% | 83.7% | 0% | 77.8% | 100% | 
Fc1cccc(COc2ccc(Nc3ncnc4c3CN(CCN3CCOCC3)CC4)cc2Cl)c1 [Compound 6] | 0% | 0% | 0% | 0% | 0% | 0% | 0% | 0% | 0% | 0% | 0% | 0% | 0% | 
COc1cc(Nc2nccc(-c3sc(N)nc3-c3cccc(NC(=O)c4c(F)cccc4F)c3)n2)cc(OC)c1OC [Compound 7] | 0% | 99.2% | 0% | 99% | 76.3% | 0% | 100% | 0% | 0% | 89.5% | 0% | 0% | 100% | 
C[C@@H](Oc1cc(-c2cnc3ccccn23)sc1C(N)=O)c1ccccc1Cl [Compound 8] | 0% | 69.8% | 92.7% | 89% | 0% | 94.6% | 0% | 0% | 0% | 0% |  | 0% | 0% | 
c1ccc(COc2cccc(-c3ccnc4[nH]ccc34)c2)cc1 [Compound 9] | 0% | 0% | 0% | 93.8% | 0% | 100% | 0% | 0% | 0% | 0% | 0% | 0% | 0% | inhibition at 10 µM ([4]; 10 μM, n = 1, read-out: percent inhibition AXL): ≥ 90%; inhibition at 10 µM ([6]; 10 μM, n = 1, read-out: percent inhibition CSNK2A1): ≥ 99%
Clc1ccc(Nc2ncc(-c3ccccc3)s2)cc1 [Compound 10] | 0% | 0% | 0% | 0% | 0% | 0% | 99% | 0% | 0% | 0% | 0% | 0% | 0% | inhibition at 10 µM [7, 25]: > 99%; inhibition of KDR (VEGFR2), in words ([10]; kinome profiling, 10 μM): relatively weak inhibition
Nc1ncc2c(-c3ccncc3)c[nH]c2n1 [Compound 11] | 99.3% | 99.5% | 99.2% | 0% | 99.9% | 0% | 99.3% | 0% | 0% | 0% | 0% | 0% | 0% | inhibition at 10 µM ([1]; 10 μM, n = 1, read-out: percent inhibition CSNK1G1): ≥ 99%; inhibition at 10 µM ([2]; 10 μM, n = 1, read-out: percent inhibition TTK): ≥ 99%; inhibition at 10 µM ([3]; 10 μM, n = 1, read-out: percent inhibition CLK1): ≥ 99%; inhibition at 10 µM ([5]; 10 μM, n = 1, read-out: percent inhibition CSNK1D): ≥ 99%; inhibition at 10 µM [7, 25]: ≥ 99%
